Assay results reported in ChEMBL document CHEMBL3797127, “Design, synthesis and evaluation of pyrrolo[2,3-d]pyrimidine-phenylamide hybrids as potent Janus kinase 2 inhibitors” (Bioorg Med Chem Lett, 2016).

Key:
[1] = biological target: T1, Tyrosine-protein kinase JAK3 (Homo sapiens, UniProt P52333)
T1 sequence (P52333 whole entry): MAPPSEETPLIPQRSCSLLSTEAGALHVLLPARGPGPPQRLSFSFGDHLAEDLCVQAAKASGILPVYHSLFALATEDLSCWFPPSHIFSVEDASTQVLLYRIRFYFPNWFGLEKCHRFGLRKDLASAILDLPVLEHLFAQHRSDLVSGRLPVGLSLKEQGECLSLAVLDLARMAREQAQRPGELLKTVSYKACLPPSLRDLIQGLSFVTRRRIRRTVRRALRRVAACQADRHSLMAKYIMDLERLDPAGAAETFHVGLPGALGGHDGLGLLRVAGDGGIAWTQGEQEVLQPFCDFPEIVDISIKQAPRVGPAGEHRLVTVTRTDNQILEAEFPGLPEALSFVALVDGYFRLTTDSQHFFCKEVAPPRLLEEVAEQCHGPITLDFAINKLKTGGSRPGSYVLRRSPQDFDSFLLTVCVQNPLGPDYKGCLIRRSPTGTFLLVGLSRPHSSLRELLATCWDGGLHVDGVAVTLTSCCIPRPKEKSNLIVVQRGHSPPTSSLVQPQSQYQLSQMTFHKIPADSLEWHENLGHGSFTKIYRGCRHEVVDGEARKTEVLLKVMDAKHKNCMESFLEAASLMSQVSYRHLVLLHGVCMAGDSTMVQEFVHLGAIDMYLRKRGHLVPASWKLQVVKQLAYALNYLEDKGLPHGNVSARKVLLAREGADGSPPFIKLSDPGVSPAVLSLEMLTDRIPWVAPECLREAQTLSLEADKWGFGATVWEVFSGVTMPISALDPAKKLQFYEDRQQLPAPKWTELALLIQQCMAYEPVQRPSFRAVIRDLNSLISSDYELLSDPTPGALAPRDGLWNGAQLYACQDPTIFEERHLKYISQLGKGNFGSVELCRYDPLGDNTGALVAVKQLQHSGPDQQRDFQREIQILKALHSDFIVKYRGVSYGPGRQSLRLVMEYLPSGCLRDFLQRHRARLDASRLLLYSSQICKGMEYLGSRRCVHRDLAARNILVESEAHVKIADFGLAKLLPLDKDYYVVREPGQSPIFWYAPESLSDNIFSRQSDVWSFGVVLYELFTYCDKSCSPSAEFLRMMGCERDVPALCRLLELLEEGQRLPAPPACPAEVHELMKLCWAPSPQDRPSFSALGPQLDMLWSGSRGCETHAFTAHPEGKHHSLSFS
Description: Inhibition of recombinant human GST-tagged JAK3 expressed in baculovirus expression system using Z'-LYTE Try6 peptide as substrate incubated for 1 hr by Z'-LYTE assay

in vivo [2] = details: Sprague-Dawley, rat, iv, 4 mg/kg
in vivo [3] = details: Sprague-Dawley, rat, po, 10 mg/kg
Description: Half life in Sprague-Dawley rat at 10 mg/kg, po administered through gavage

in vivo [4] = details: Sprague-Dawley, rat, po, 10 mg/kg; remark: listed apart in the source
in vivo [5] = details: Sprague-Dawley, rat, po, 10 mg/kg; remark: listed apart in the source
in vivo [6] = details: Sprague-Dawley, rat, iv, 4 mg/kg; remark: listed apart in the source
Description: Half life in Sprague-Dawley rat at 4 mg/kg, iv administered as bolus dose

in vivo [7] = details: Sprague-Dawley, rat, po, 10 mg/kg; remark: listed apart in the source
in vivo [8] = details: Sprague-Dawley, rat, iv, 4 mg/kg; remark: listed apart in the source
in vivo [9] = details: Sprague-Dawley, rat, iv, 4 mg/kg; remark: listed apart in the source
in vivo [10] = details: Sprague-Dawley, rat, po, 10 mg/kg; remark: listed apart in the source
in vivo [11] = details: Sprague-Dawley, rat, iv, 4 mg/kg; remark: listed apart in the source

Cn1c(C(=O)NCCCN2CCOCC2)cc2c(-c3ccc(NC(=O)[C@@H]4CCCN4C(=O)OC(C)(C)C)cc3)ncnc21
IC50 [1]: 507 nM

Cn1c(C(=O)NCCN2CCCC2)cc2c(-c3ccc(NC(=O)[C@@H]4CCCN4C(=O)OC(C)(C)C)cc3)ncnc21
IC50 [1]: 716 nM

Cn1c(C(=O)NCCN2CCCC2)cc2c(-c3ccc(NC(=O)C(C)(C)C)cc3)ncnc21
IC50 [1]: 953 nM

Cn1c(C(=O)NCCCN2CCOCC2)cc2c(-c3ccc(NC(=O)C(C)(C)C)cc3)ncnc21
AUC(0-t) at 24 h (in vivo [2]): 19700 ng·h/mL
half-life (in vivo [3]): 2.32 h
IC50 [1]: 584 nM
Tmax (in vivo [4]): 4 h
Cmax (in vivo [5]): 6140 ng/mL
half-life (in vivo [6]): 2.09 h
AUC(0-t) at 24 h (in vivo [7]): 36300 ng·h/mL
Cmax (in vivo [8]): 9730 ng/mL
Vd (in vivo [9]): 0.612 L/kg
bioavailability (in vivo [10]): 73.6%
clearance (in vivo [11]): 3.3 mL/min/kg
